System: CHO cell lines (Cell line A and Cell line B)
Format: cell-based, Chinese Hamster
Description: To test for the effect of toxicity of high polyoxypropylene-polyoxyethylene block copolymer (LUTROL® F68) concentration on cells, two CHO cell lines (Cell line A and Cell line B) expressing different monoclonal antibodies were carried over 10 passages (at 3 days/passage), at an initial seeding density of 8×10^5 cells/ml in 250 ml shake flasks with cell culture media containing 1, 2, 3, 4 or 5 g/L polyoxypropylene-polyoxyethylene block copolymer (LUTROL® F68).
An overall increase in cell density was observed (3.4-6.5×10^6 cells/ml) after 3 days. Viable cell density was normalized to the 1 g/L condition to enable comparison between the different polyoxypropylene-polyoxyethylene block copolymer (LUTROL® F68) concentrations.
The cells grown in media containing 3, 4 or 5 g/L polyoxypropylene-polyoxyethylene block copolymer (LUTROL® F68) were consistently higher over the passages, in which a 10% increase in cell density was measured compared to the 1 g/L condition (p<0.01) (FIG. 7A). The viability was also greater for the higher polyoxypropylene-polyoxyethylene block copolymer (LUTROL® F68) cultures (mean >95%) (FIG. 7B). […] The variation of viable cell density, % viability.

## poloxamer 188 [LUTROL® F68]
  cell diameter compared to the 1 g/L condition: increased slightly
  increase in cell density compared to the 1 g/L condition: 10%
  viability (mean): > 95%

Source: patent US11427848B2, “Methods for harvesting mammalian cell cultures” (Amgen Inc., priority 2014, dated 2022)
